From BindingDB's records for patent US12391669 (University Of California, 2025)

How the values were obtained:
[1] = target: Serine/threonine-protein kinase/endoribonuclease IRE2 (Human, UniProt Q76MJ5); experiment: Not found
Excerpt: Not found

[2] = target: Serine/threonine-protein kinase/endoribonuclease IRE1 (Homo sapiens, UniProt O75460); experiment: Not found
Excerpt: Not found

Serine/threonine-protein kinase/endoribonuclease IRE1, sequence (O75460 whole entry): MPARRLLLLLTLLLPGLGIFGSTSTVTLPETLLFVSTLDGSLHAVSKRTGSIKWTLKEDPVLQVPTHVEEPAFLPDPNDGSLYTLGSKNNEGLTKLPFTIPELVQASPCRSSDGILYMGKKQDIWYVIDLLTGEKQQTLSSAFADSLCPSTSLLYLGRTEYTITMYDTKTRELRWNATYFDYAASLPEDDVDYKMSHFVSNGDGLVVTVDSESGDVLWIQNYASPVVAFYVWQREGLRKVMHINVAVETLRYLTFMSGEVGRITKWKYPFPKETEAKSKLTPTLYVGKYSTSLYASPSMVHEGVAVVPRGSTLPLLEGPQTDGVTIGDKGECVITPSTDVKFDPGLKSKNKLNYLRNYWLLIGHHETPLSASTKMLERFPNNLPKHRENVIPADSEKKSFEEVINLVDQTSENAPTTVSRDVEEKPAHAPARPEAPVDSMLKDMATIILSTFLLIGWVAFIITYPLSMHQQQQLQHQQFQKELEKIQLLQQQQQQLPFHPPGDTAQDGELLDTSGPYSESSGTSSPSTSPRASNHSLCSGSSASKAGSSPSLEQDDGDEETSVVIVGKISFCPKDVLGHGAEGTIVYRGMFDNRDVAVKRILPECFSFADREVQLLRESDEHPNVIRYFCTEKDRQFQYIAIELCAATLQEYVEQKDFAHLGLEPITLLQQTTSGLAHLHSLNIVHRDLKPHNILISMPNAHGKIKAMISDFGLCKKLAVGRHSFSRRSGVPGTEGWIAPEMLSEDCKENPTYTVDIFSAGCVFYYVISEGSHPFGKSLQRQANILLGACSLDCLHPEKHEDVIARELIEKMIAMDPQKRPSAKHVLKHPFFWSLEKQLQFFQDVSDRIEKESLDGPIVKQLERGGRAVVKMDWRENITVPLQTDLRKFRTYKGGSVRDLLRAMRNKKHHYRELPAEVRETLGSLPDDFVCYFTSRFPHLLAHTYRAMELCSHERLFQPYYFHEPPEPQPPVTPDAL
Serine/threonine-protein kinase/endoribonuclease IRE2, sequence (Q76MJ5 whole entry): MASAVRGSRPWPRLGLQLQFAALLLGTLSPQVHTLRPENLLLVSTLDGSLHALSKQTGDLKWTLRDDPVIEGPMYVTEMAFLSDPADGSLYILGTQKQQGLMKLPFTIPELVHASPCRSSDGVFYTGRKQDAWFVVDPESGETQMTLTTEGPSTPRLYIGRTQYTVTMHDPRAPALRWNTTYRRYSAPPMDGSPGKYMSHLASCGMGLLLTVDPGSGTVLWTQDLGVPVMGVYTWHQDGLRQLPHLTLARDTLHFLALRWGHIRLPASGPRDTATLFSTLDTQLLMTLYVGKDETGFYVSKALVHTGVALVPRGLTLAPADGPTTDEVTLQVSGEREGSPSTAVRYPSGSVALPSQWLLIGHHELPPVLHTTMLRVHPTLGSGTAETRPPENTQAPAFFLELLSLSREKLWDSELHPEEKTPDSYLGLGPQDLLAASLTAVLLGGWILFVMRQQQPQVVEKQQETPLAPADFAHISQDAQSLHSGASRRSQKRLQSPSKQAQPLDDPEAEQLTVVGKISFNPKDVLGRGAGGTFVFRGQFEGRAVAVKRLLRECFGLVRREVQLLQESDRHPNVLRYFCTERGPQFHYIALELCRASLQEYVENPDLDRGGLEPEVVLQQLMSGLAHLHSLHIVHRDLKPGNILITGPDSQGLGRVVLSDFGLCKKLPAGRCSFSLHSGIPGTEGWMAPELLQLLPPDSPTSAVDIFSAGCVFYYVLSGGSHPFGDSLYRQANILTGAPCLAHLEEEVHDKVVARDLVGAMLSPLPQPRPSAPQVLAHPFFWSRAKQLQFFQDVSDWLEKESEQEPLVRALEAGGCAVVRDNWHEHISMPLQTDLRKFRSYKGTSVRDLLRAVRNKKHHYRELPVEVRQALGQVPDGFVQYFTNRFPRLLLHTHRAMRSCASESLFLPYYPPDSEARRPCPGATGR

IC50 [1] [nM] | IC50 [2] [nM] | SMILES
> 10000 | 52 | Cc1ccc(C(=O)NCc2ccccc2Cl)cc1Oc1ncsc1-c1ccnc(N[C@H]2CCCNC2)n1 [US12391669, Compound 20]
 | 443 | c1cc(Cc2nc3ccccc3[nH]2)cc(Oc2ncsc2-c2ccnc(N[C@H]3CCCNC3)n2)c1 [US12391669, Compound 35]
